This is an account of results in patent US9156810B2, “Treatment of inflammatory bowel disease” (ALLERGAN, INC., priority 2003, dated 2015).

For assay [1], the target named is T1, hEP4 (Homo sapiens (Human), UniProt P35408). The experiment in a line: Radioligand binding ([3H]PGE2), HEK-293 cell membranes expressing EP4 receptor. To be noted: top number in Table 2. How it is done: (§1) HEK-293 cells stably expressing the human or feline FP receptor, or EP1, EP2, EP3, or EP4 receptors were washed with TME buffer, scraped from the bottom of the flasks, and homogenized for 30 sec using a Brinkman PT 10/35 polytron. TME buffer was added to achieve a final 40 ml volume in the centrifuge tubes (the composition of TME is 100 mM TRIS base, 20 mM MgCl2, […]; 10N HCl is added to achieve a pH of 7.4).
(§2) The cell homogenate was centrifuged at 19000 r.p.m. for 20 min at 4° C. using a Beckman Ti-60 rotor. The resultant pellet was resuspended in TME buffer to give a final 1 mg/ml protein concentration, as determined by Biorad assay. Radioligand binding competition assays vs. [^3H-]17-phenyl PGF2α, (5 nM) were performed in a 100 μl volume for 60 min. Binding reactions were started by adding plasma membrane fraction. The reaction was terminated by the addition of 4 ml ice-cold TRIS-HCl buffer and rapid filtration through glass fiber GF/B filters using a Brandel cell harvester. The filters were washed 3 times with ice-cold buffer and oven dried for one hour. Non-specific binding was determined with 10 uM unlabeled 17-phenyl PGF2α.
(§3) [^3H-] PGE2 (5 nM; specific activity 180 Ci mmol) was used as the radioligand for EP receptors. Binding studies employing EP1, EP2, EP3, EP4 were performed in duplicate in at least three separate experiments. A 200 μl assay volume was used. Incubations were for 60 min at 25° C. and were terminated by the addition of 4 ml of ice-cold 50 mM TRIS-HCl, followed by rapid filtration through Whatman GF/B filters and three additional 4 ml washes in a cell harvester (Brandel). Non-specific binding determined with 10^−5M of unlabeled PGE2.

A further assay has as its target hTP (Homo sapiens (Human), UniProt P21731). Briefly: Table 2 top number, hTP (radioligand binding per footnote). To be noted: top number in Table 2.
In assay [2] the target is T1, hEP4. The experiment in a line: FLIPR calcium signal, HEK-293(EBNA) cells expressing hEP4/Gqs5. It counts as cell-based. The settings on record: bottom number in Table 2, read-out: hEP4 functional EC50. How it is done:
HEK-293(EBNA) cells, stably expressing one type or subtype of recombinant human prostaglandin receptors (prostaglandin receptors expressed: hDP/Gqs5; hEP1; hEP2/Gqs5; hEP3A/Gqi5; hEP4/Gqs5; hFP; hIP; hTP), were cultured in 100 mm culture dishes in high-glucose DMEM medium containing 10% fetal bovine serum, 2 mM 1-glutamine, 250 μg/ml geneticin (G418) and 200 μg/ml hygromycin B as selection markers, and 100 units/ml penicillin G, 100 μg/m streptomycin and 0.25 μg/m amphotericin B.
Cells were seeded at a density of 5×10^4 cells per well in Biocoat® Poly-D-lysine-coated black-wall, clear-bottom 96-well plates (Becton-Dickinson) and allowed to attach overnight in an incubator at 37° C. Cells were then washed two times with HBSS-HEPES buffer (Hanks Balanced Salt Solution without bicarbonate and phenol red, 20 mM HEPES, pH 7.4) using a Denley Cellwash plate washer (Labsystems). After 45 minutes of dye-loading in the dark, using the calcium-sensitive dye Fluo-4 AM at a final concentration of 2 μM, plates were washed four times with HBSS-HEPES buffer to remove excess dye leaving 100 μl in each well. Plates were re-equilibrated to 37° C. for a few minutes.
Cells were excited with an Argon laser at 488 nm, and emission was measured through a 510-570 nm bandwidth emission filter (FLIPR™, Molecular Devices, Sunnyvale, Calif.). […] The peak increase in fluorescence intensity was recorded for each well. On each plate, four wells each served as negative (HBSS-HEPES buffer) and positive controls (standard agonists: BW245C (hDP); PGE2 (hEP1; hEP2/Gqs5; hEP3A/Gqi5; hEP4/Gqs5); PGF2 (hFP); carbacyclin (hIP); U-46619 (hTP), depending on receptor). The peak fluorescence change in each drug-containing well was then expressed relative to the controls.
Compounds were tested in a high-throughput (HTS) or concentration-response (CoRe) format. In the HTS format, forty-four compounds per plate were examined in duplicates at a concentration of 10^−5 M. To generate concentration-response curves, four compounds per plate were tested in duplicates in a concentration range between 10^−5 and 10^−11 M. The duplicate values were averaged.

Another assay has as its target hEP1 (Homo sapiens (Human), UniProt P34995). The experiment in a line: Radioligand binding ([3H]PGE2), HEK-293 cell membranes expressing EP1 receptor. To be noted: top number in Table 2. How it is done: as §1, §2, §3
A further assay deals with hEP3D (Homo sapiens (Human), UniProt P43115). Briefly: Radioligand binding ([3H]PGE2), HEK-293 cell membranes expressing EP3 receptor. To be noted: top number in Table 2. How it is done:
as §1, §2, §3

pEC50, pIC50: −log10 of the molar value.

Chain of hEP1 (P34995 whole entry): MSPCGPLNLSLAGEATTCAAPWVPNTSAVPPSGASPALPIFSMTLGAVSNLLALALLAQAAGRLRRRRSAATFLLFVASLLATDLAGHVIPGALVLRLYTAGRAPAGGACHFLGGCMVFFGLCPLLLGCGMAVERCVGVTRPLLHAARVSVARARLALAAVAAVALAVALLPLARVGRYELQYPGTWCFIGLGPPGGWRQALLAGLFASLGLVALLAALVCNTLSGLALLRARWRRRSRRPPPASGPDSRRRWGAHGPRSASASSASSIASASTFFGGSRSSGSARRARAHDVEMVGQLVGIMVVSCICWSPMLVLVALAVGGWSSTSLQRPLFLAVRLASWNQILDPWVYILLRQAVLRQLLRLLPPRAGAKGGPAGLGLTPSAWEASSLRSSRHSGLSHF
Chain of hEP3D (P43115 other isoform, or with tags, fused parts or gaps): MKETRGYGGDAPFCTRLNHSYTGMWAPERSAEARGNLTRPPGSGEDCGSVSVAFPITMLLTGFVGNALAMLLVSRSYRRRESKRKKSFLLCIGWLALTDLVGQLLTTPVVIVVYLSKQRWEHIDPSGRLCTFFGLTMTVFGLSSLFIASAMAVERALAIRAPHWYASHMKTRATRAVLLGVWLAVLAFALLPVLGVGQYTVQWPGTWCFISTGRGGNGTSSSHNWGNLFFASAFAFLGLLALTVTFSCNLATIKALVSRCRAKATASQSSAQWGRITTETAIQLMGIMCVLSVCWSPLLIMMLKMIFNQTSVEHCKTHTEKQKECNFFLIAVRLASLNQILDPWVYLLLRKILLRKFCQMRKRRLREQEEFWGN
Chain of hTP (P21731 whole entry): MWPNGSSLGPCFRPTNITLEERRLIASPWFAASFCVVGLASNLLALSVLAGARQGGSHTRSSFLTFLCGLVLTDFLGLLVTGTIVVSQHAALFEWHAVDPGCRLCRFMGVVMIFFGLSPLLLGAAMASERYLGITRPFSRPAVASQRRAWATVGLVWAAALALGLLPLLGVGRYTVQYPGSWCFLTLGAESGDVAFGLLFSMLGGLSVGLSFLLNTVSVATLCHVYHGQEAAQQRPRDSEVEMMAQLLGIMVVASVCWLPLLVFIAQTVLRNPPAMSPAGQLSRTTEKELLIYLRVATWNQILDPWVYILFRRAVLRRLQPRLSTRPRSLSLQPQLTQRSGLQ
T1 sequence (P35408 whole entry, looked up): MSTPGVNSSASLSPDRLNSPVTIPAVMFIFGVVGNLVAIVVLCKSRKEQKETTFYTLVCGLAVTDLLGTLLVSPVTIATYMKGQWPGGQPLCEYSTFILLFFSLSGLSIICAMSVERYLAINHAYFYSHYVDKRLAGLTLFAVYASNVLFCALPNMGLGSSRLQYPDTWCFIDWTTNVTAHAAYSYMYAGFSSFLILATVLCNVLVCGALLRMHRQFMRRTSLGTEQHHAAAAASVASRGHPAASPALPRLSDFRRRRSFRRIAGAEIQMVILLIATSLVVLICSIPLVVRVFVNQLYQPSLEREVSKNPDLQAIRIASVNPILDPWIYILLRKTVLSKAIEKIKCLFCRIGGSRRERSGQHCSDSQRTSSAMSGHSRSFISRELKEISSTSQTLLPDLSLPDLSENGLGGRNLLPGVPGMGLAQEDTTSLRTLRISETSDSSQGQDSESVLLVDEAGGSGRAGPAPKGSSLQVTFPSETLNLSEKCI

Regarding `CCNC(=O)CCC/C=C\C[C@H]1C(=O)C(C)(C)[C@@H](O)[C@@H]1/C=C/C(O)Cc1cc2ccccc2s1` (single isomer, unassigned) [Compound 60], at hEP4 [1], the hEP4 radioligand binding IC50 is > 10000 nM.
For `CC1(C)C(=O)[C@H](C/C=C\CCCC(N)=O)[C@@H](/C=C/C(O)Cc2cc3ccccc3s2)[C@@H]1O` (single isomer, unassigned) [Compound 69], at hEP4 [1], the pIC50 is 5.30. For the same compound, the hTP radioligand binding IC50 on hTP is > 10000 nM.
`COC(=O)CCC/C=C\C[C@H]1C(=O)C(C)(C)[C@@H](O)[C@@H]1/C=C/C(O)CCc1sc2ccccc2c1Cl` (single isomer, unassigned) [Compound 39]: the pIC50 on hEP4 [1] is 5.64. Besides, the negative-log EC50 (pEC50) at hEP4 [2] is 6.85.
For `COC(=O)CCC/C=C\C[C@H]1C(=O)C(C)(C)[C@@H](O)[C@@H]1/C=C/C(O)CCc1sc2ccccc2c1Cl` (single isomer, unassigned) [Compound 38], in that order: 5.57 and 6.57.
Consider `CC1(C)C(=O)[C@H](C/C=C\CCCC(=O)O)[C@@H](/C=C/C(O)CCc2ccccc2)[C@@H]1O` (single isomer, unassigned) [Compound 53], for which the figures for the pIC50 at hEP4 [1], at hEP1 and at hEP3D were 7.23, 5.99 and 5.73, respectively. In addition, the pEC50 on hEP4 [2] was 8.19.
`COC(=O)CCC/C=C\C[C@H]1C(=O)C(C)(C)[C@@H](O)[C@@H]1/C=C/C(O)Cc1ccccc1` (single isomer, unassigned) [Compound 48]: at hEP4 [1], the pIC50 was 7.35.
Still for that read-out and setting: with `CCN(CC)C(=O)CCC/C=C\C[C@H]1C(=O)C(C)(C)[C@@H](O)[C@@H]1/C=C/C(O)Cc1cc2ccccc2s1` (single isomer, unassigned) [Compound 62] the figure was 6.08.
In the case of `CC1(C)C(=O)[C@H](SCCCSCC(=O)O)[C@@H](/C=C/C(O)CCc2sc3ccccc3c2Cl)[C@@H]1O` (single isomer, unassigned) [Compound 24], on hEP4 [1], the pIC50 was 7.59. The pEC50 on hEP4 [2] is 10.00. For the same compound, at hEP3D, the “hEP3D radioligand binding IC50” value is on record as >>10K.
Compound `COC(=O)CCC/C=C\C[C@H]1C(=O)C(C)(C)[C@@H](O)[C@@H]1/C=C/C(O)Cc1ccccc1` (single isomer, unassigned) [Compound 49] showed a pIC50 at hEP4 [1] of 5.85.
As for `CC1(C)C(=O)[C@H](CC#CCCCC(=O)O)[C@@H](/C=C/C(O)Cc2cc3ccccc3s2)[C@@H]1O` (single isomer, unassigned) [Compound 75], the hEP4 radioligand binding IC50 at hEP4 [1] is > 10000 nM. The compound also showed a pIC50 on hEP1 of 5.69. Also, the hTP radioligand binding IC50 on hTP is > 10000 nM.
On to `COC(=O)CCC/C=C\C[C@H]1C(=O)C(C)(C)[C@@H](O)[C@@H]1/C=C/C(O)Cc1cc2ccccc2s1` (single isomer, unassigned) [Compound 71], for which the negative-log IC50 (pIC50) at hEP4 [1] was 5.00.
Turning to `CC1(C)C(=O)[C@H](C/C=C\CCCC(N)=O)[C@@H](/C=C/C(O)Cc2cc3ccccc3s2)[C@@H]1O` (single isomer, unassigned) [Compound 68], the pIC50 at hEP4 [1] is 6.17. Moreover, the hTP radioligand binding IC50 on hTP was > 10000 nM.
With `CC1(C)C(=O)[C@H](C/C=C\CCCC(=O)O)[C@@H](/C=C/C(O)Cc2cc3ccccc3s2)[C@@H]1O` (single isomer, unassigned) [Compound 55], the pIC50 is 6.51 on hEP4 [1] and 6.12 on hEP1. Moreover, on hEP4 [2], the pEC50 was 7.42. For the same compound, on hEP3D, the hEP3D radioligand binding IC50 is > 10000 nM.
In the case of `CC1(C)C(=O)[C@H](CC#CCCCC(=O)O)[C@@H](/C=C/C(O)Cc2cc3ccccc3s2)[C@@H]1O` (single isomer, unassigned) [Compound 74], the pIC50 is 6.59 at hEP4 [1] and 5.62 at hEP1.
`CC1(C)C(=O)[C@H](C/C=C\CCCC(=O)O)[C@@H](/C=C/C(O)Cc2ccccc2)[C@@H]1O` (single isomer, unassigned) [Compound 47]: the pIC50 on hEP4 [1] is 7.12; at hEP1, 6.02. Further, at hEP3D, the hEP3D radioligand binding IC50 is > 10000 nM.
Take `CCN(CC)C(=O)CCC/C=C\C[C@H]1C(=O)C(C)(C)[C@@H](O)[C@@H]1/C=C/C(O)Cc1cc2ccccc2s1` (single isomer, unassigned) [Compound 63]: on hEP4 [1], the pIC50 was 6.32. In addition, the hEP1 radioligand binding IC50 on hEP1 was > 10000 nM.
`CC1(C)C(=O)[C@H](C/C=C\CCCC(=O)O)[C@@H](/C=C/C(O)CCc2sc3ccccc3c2Cl)[C@@H]1O` (single isomer, unassigned) [Compound 40] had a pIC50 at hEP4 [1] of 6.70. Also, on hEP4 [2], the negative-log EC50 (pEC50) was 9.52. The hTP radioligand binding IC50 on hTP is > 10000 nM.
At hEP4 [1], `COC(=O)CSCCCS[C@H]1C(=O)C(C)(C)[C@@H](O)[C@@H]1/C=C/C(O)CCc1sc2ccccc2c1Cl` (single isomer, unassigned) [Compound 22] showed a pIC50 of 6.52. Moreover, the pEC50 at hEP4 [2] was 7.52.
With `CC1(C)C(=O)[C@H](C/C=C\CCCC(=O)NCCO)[C@@H](/C=C/C(O)Cc2cc3ccccc3s2)[C@@H]1O` (single isomer, unassigned) [Compound 64], the negative logarithm of the IC50 (pIC50) at hEP4 [1] is 5.38.
For the compound `CC1(C)C(=O)[C@H](SCCCSCC(=O)O)[C@@H](/C=C/C(O)CCc2sc3ccccc3c2Cl)[C@@H]1O` (single isomer, unassigned) [Compound 23], the pIC50 on hEP4 [1] was 7.36. Further, on hEP4 [2], the pEC50 is 10.00. Also, the hEP3D radioligand binding IC50 on hEP3D is > 10000 nM. The hTP radioligand binding IC50 at hTP is > 10000 nM.
On to `COC(=O)CCC/C=C\C[C@H]1C(=O)C(C)(C)[C@@H](O)[C@@H]1/C=C/C(O)CCc1ccccc1` (single isomer, unassigned) [Compound 51], for which the pIC50 at hEP4 [1] was 6.15.
`CC1(C)C(=O)[C@H](C/C=C\CCCC(=O)O)[C@@H](/C=C/C(O)Cc2cc3ccccc3s2)[C@@H]1O` (single isomer, unassigned) [Compound 54]: the pIC50 is 7.70 at hEP4 [1], 6.51 on hEP1 and 5.33 on hEP3D. Moreover, the pEC50 at hEP4 [2] is 9.52.
For `CC1(C)C(=O)[C@H](C/C=C\CCCC(=O)O)[C@@H](/C=C/C(O)CCc2ccccc2)[C@@H]1O` (single isomer, unassigned) [Compound 52], in that order: 7.14, 7.57, 7.22 and 7.74.
For the compound `COC(=O)CCCC#CC[C@H]1C(=O)C(C)(C)[C@@H](O)[C@@H]1/C=C/C(O)Cc1cc2ccccc2s1` (single isomer, unassigned) [Compound 72], on hEP4 [1], the hEP4 radioligand binding IC50 is > 10000 nM.
`COC(=O)CCC/C=C\C[C@H]1C(=O)C(C)(C)[C@@H](O)[C@@H]1/C=C/C(O)Cc1cc2ccccc2s1` (single isomer, unassigned) [Compound 70] gave a pIC50 at hEP4 [1] of 6.66. The hEP3D radioligand binding IC50 on hEP3D was > 10000 nM.

One may read the pIC50 as the IC50 on a negative log10 scale, so that one unit is a factor of ten. For orientation: pEC50 means −log10 of the EC50, conventionally taken in molar units.
